A short description of this data set: PAMPA passive permeability. It counts as in vitro ADME. The following applies: pH 7.4. A general note: In PAMPA a lipid-coated filter parts donor from acceptor wells.

`CCCCCCOc1ccc(C(=O)CCN(C)C)c2ccccc12` [13{1}]: the “Permeability (PAMPA, Pe)” value is recorded as “high permeability”.

Source of the values: publication PMC2753520 (Journal of medicinal chemistry, 2009).
